Experimental data taken from PMC10761660, “Preclinical evaluation of an ^18F-labeled N^ε-acryloyllysine piperazide for covalent targeting of transglutaminase 2” (EJNMMI Radiopharmacy and Chemistry, 2024).
Where two headings read alike, the source gives them in different places.

Assays:
[1] = Ex vivo biodistribution in normal mice; design: species or system mice (Rj:NMRI-Foxn1 nu/nu); details: i.v., control conditions
Method: For biodistribution studies in normal mice, [^18F]7b (0.57 ± 0.03 MBq corresponding to 27 ± 1 pmol in 0.2 mL 0.9% NaCl with a maximum of 10% ethanol (v/v)) was injected i.v. into nude mice (Rj:NMRI-Foxn1 nu/nu, Janvier Laboratories, Le Genest-Saint-Isle, France, body weight 27.7 ± 3.4 g) without (control conditions) or with co-injection of ketoconazole (3 mg/animal). A stock solution of ketoconazole (141 mM) was prepared in ethanol/Tween-80 (1:1, v/v) by shaking over night at 45 °C. This solution was diluted with 0.9% NaCl (1:4, v/v) prior injection. The animals were sacrificed at 5 and 60 min p.i. by CO2 inhalation and cervical dislocation. Organs and tissues of interest were excised, weighed, and radioactivity was determined using the Wizard™3’’ gamma counter. Activity in selected organs and tissues was expressed as % injected dose per weight (% ID/g) or % injected dose (% ID).

Liver microsome assay = assay type: in vitro ADME, murine; details: for CLint scaled: read-out: predicted intrinsic clearance (pred. CLint); for half-life: t1/2 approach (at 3-4 µM), 1 mg/mL MLM, 2 mM NADPH
Method: Microsome experiments with [^18F]7b in the presence of NADPH were performed according to the procedure recently described by us with slight modifications (Lemm et al. [2022]). […] [^18F]7b dissolved in 0.5% ethanol/PBS (100 µL; 0.2% ethanol final, e.g. 108 MBq/mL or 4.1 µM final) was mixed with PBS (112.5 µL) and murine liver microsomes (MLM, 12.5 µL of 20 mg/mL stock; 1 mg/mL final; Gibco™ Cat. No. MSMCPL, Lot. No. MS053-A) in a 1.5 mL Eppendorf tube and the mixture was warmed for 5 min at 37 °C. Subsequently, NADPH (25 µL of freshly prepared 20 mM solution in PBS, 2 mM final) was added and the mixture was incubated at 37 °C. As a control incubation, the NADPH solution was replaced by PBS. At distinct time points (5, 10, 15, 30, and 60 min), an aliquot (40 µL) was withdrawn and added to ice-cold CH3CN (160 µL). The mixture was vortexed for 30 s, stored on ice for 4 min and centrifuged (5 min at 16,100 × g). The resulting supernatant was used for radio-HPLC and radio-TLC analyses. For radio-HPLC, the Shimadzu Nexera X2 UHPLC system described above including the conditions for analysis was used. Radio-TLC was carried out on reversed-phase TLC plates (ALUGRAM RP-18W/UV254 from Macherey–Nagel, Düren, Germany) with a mobile phase of 40% CH3CN in water containing 0.1% trifluoroacetic acid. Visualization of radioactive spots and subsequent analysis was conducted as described above.
Testosterone (40 µM final) was used as positive control for the activity of the MLM and was separately treated and analyzed after incubation times of 5, 10, 15, 30, and 60 min as described above (0% ethanol final; HPLC gradient profile: 45% eluent B for 10 min followed by washing of the column with 45% to 95% eluent B in 1 min, 95% eluent B for 5 min, 95% to 45% eluent B in 1 min, 45% eluent B for 8 min; total time of 25 min).
For that, solutions of [^18F]7b in 0.5% ethanol/PBS (10 µL; 0.1% ethanol final, 17 MBq/mL or 1.14 µM final) were mixed with the respective tenfold concentrated solutions of 7b dissolved in 10% DMSO/PBS (5 µL, 1% DMSO final and 5/10/20/40/80 µM of 7b final), PBS (27.5 µL) and murine liver microsomes (2.5 µL of 20 mg/mL stock) in a 1.5 mL Eppendorf tube and the mixture was warmed for 5 min at 37 °C. Subsequently, NADPH (5 µL of freshly prepared 20 mM solution in PBS, 2 mM final) was added and the mixture was incubated at 37 °C. At distinct time points (5, 10, 15, 20, and 30 min), an aliquot (5 µL) was withdrawn and added to ice-cold CH3CN (40 µL). The subsequent steps were performed as described above including analysis by radio-TLC.
For the t1/2 approach at n.c.a. level, the obtained fractions of intact [^18F]7b (by radio-HPLC or radio-TLC analysis) were plotted against the time. Nonlinear regression was performed by one-phase decay (equation 1) as implemented in GraphPad Prism (GraphPad Prism 9.5.1.733), which provided the t1/2 values. The fraction at X = 0 min, Y0, was constrained to 1.0.1 Y0=Y0-Plateau×e^-k×X+Plateau
Subsequently, the intrinsic clearance, CLint (mL*min^−1*kg^−1), was calculated using equation 2 (Obach et al. [1997]; Schneider et al. [2019])2 CLint=ln2/t1/2min×fuinc×1/MLM(mg/mL)×microsomalprotein/liverweightmg/g×liverweight/bodyweightg/kg with the scaling factors of 60.1 mg/g (microsomal protein/liver weight for rats as no value for mice could be found) (Carlile et al. [1997]) and 87.5 g/kg (liver weight/body weight for mice) (Davies and Morris [1993]). The concentration of the MLMs was 1 mg/mL.
For the Vmax/Km approach, the obtained fractions of intact [^18F]7b (by radio-TLC analysis) were plotted against the time (fraction plot). The concentration plot was obtained by transformation of the fractions into concentrations of 7b by taking the experimentally determined molar activity of [^18F]7b into account (i.e. final concentration of 1.14, 6.16, 11.14, 21.14, 41.14, and 81.14 µM for 7b in the performed experiments). Both plots were analyzed by nonlinear regression according to one-phase decay (equation 1). […]

C=CC(=O)NCCCCC(NC(=O)Cc1ccccc1)C(=O)N1CCN(c2cccc([18F])n2)CC1 (stereo not shown) [[^18F]7b]
activity uptake kidneys ([1]; 5 min p.i.): 7.9 %ID/g
activity uptake liver ([1]; 5 min p.i.): 15.7 %ID/g
activity uptake femur ([1]; 60 min p.i.): 3.9 %ID/g
injected activity in intestinal content ([1]; 60 min p.i.): 50 %ID
injected activity in urine ([1]; 60 min p.i.): 19 %ID
fraction of intact [^18F]7b (Liver microsome assay; MLM, after 30 min in the absence of NADPH, radio-TLC): 0.984
Vmax (Liver microsome assay; Michaelis–Menten analysis, degradation by MLM (1 mg/mL)): 0.37 µM/min
Vmax (Liver microsome assay; Vmax/Km approach, substrate depletion, radio-TLC): 0.37 µM*mL*min^-1*mg^-1
CLint scaled (Liver microsome assay; mouse, liver microsomes, Vmax/Km approach, mice): 1610 mL/min/kg
half-life (Liver microsome assay; mouse, liver microsomes, radio-HPLC): 5.7 min
half-life (Liver microsome assay; mouse, liver microsomes, radio-TLC): 7.2 min
CLint scaled (Liver microsome assay; mouse, liver microsomes, t1/2 approach): 772 mL/min/kg
Km (Liver microsome assay; mouse, liver microsomes, Vmax/Km approach, degradation by MLM, radio-TLC): 1.5 µM
